Where only a bound is given, the exact number is not on record here.

One experiment addresses T1, PERK (Homo sapiens, UniProt Q9NZJ5).
T1 sequence (Q9NZJ5 30-1116): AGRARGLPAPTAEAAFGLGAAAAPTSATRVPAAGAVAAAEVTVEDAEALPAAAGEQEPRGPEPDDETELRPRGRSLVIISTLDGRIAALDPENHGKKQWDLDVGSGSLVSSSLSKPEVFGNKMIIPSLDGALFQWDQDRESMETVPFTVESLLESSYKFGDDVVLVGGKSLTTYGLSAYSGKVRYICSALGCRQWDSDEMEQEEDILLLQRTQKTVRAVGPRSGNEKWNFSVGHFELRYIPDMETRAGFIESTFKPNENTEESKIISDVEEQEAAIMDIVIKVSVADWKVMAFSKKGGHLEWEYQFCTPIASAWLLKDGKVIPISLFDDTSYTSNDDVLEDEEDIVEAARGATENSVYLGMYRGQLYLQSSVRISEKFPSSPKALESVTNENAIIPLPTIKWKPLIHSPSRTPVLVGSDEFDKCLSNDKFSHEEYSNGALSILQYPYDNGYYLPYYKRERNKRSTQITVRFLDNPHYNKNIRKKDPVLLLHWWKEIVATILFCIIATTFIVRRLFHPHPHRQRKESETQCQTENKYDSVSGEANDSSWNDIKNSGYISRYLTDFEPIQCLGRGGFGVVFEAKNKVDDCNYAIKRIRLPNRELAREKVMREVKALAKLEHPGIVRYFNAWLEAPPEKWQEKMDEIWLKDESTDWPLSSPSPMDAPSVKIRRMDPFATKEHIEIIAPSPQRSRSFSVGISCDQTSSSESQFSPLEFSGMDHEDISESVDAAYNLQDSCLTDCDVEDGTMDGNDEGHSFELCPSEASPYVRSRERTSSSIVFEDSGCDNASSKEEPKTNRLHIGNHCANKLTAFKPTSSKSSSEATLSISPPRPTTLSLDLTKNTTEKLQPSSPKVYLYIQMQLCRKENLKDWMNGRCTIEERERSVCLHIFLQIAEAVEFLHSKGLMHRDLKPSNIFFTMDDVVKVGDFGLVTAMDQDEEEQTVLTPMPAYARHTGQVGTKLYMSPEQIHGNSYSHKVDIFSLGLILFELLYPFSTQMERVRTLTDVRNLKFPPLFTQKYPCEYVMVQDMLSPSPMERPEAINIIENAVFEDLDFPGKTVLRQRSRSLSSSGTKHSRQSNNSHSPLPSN
Nature of the experiment: PERK enzyme assay (HTRF). The format is biochemical. The note with it: 500 μM ATP; at least one experimental run; read-out: PERK Enzyme (500 μM ATP) IC50. Put shortly: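 HTRF read-out after 2 h of EDTA-quenched reactions, detecting phospho-eIF2α with Eu/APC reagents, gave IC50 values. Reaction: 0.75 nM GST-PERK, 30–60 min compound pre-incubation (max 1% DMSO), then 60 min with 40 nM biotin-eIF2α and 500 μM ATP, HEPES pH 7.5 buffer.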
A general note: Time-resolved FRET reads energy transfer from a long-lived donor to a nearby acceptor.
For the compound `CN1C(=O)N(c2ccc(-c3cn(C)c4ncnc(N)c34)c(F)c2)CC1c1ccc(F)cc1F` (single isomer, unassigned) [Example 46, 1-(4-(4-amino-7-methyl-7H-pyrrolo[2,3-d]pyrimidin-5-yl)-3-fluorophenyl)-4-(2,4-difluorophenyl)-3-methylimidazolidin-2-one], the IC50 turned out to be 13.8 nM. Still for that read-out and setting: under `CN1C(=O)N(c2ccc(-c3cn(C)c4ncnc(N)c34)c(F)c2)CC1c1ccc(F)cc1` (single isomer, unassigned) [Example 59, 1-(4-(4-amino-7-methyl-7H-pyrrolo[2,3-d]pyrimidin-5-yl)-3-fluorophenyl)-4-(4-fluorophenyl)-3-methylimidazolidin-2-one] stands 3.9 nM.

The experiment is the same for the next values; noted with them: PERK Enzyme (500 μM ATP) IC50; at least one experimental run; read-out: PERK Activity.
As to `CN1C(=O)N(c2ccc(-c3cn(C)c4ncnc(N)c34)c(F)c2)CC1c1ccc(F)cc1F` (single isomer, unassigned) [Example 46, 1-(4-(4-amino-7-methyl-7H-pyrrolo[2,3-d]pyrimidin-5-yl)-3-fluorophenyl)-4-(2,4-difluorophenyl)-3-methylimidazolidin-2-one], the IC50 was under 100 nM.

For “1-(4-(4-amino-2,7-dimethyl-7H- pyrrolo[2,3-d]pyrimidin-5-yl)-3- fluorophenyl)-4-(2,4-difluorophenyl)- 3-trifluoroethyl)imidazolidin-2-one [Example 83]”, the IC50 was in the range of 100 to 1000 nM. Same read-out and setting: for `CN1C(=O)N(c2ccc(-c3cn(C4CC4)c4ncnc(N)c34)c(F)c2)CC1c1ccc(F)cc1F` (stereo not shown) [Example 108, 1-(4-(4-amino-7-cyclopropyl-7H-pyrrolo[2,3-d]pyrimidin-5-yl)-3-fluorophenyl)-4-(2,4-difluorophenyl)-3-methylimidazolidin-2-one] the value was under 100 nM.

Turning to `CN1C(=O)N(c2ccc(-c3cn(C4CC4)c4ncnc(N)c34)c(Cl)c2)CC1c1cc(F)cc(F)c1` (stereo not shown) [Example 122, 1-(4-(4-amino-7-cyclopropyl-7H-pyrrolo[2,3-d]pyrimidin-5-yl)-3-chlorophenyl)-4-(3,5-difluorophenyl)-3-methylimidazolidin-2-one], the IC50 is under 100 nM. Still for that read-out and setting: under `CN1C(=O)N(c2ccc(-c3cn(C)c4ncnc(N)c34)c(F)c2)CC1c1cc(F)cc(F)c1F` (single isomer, unassigned) [Example 140, 1-(4-(4-amino-7-methyl-7H-pyrrolo[2,3-d]pyrimidin-5-yl)-3-fluorophenyl)-3-methyl-4-(2,3,5-trifluorophenyl)imidazolidin-2-one] stands under 100 nM.

On to `Cc1nc(N)c2c(-c3ccc(N4CC(c5ccc(F)cc5F)N(C)C4=O)cc3F)cn(C)c2n1` (stereo not shown) [Example 65, 1-(4-(4-amino-2,7-dimethyl-7H-pyrrolo[2,3-d]pyrimidin-5-yl)-3-fluorophenyl)-4-(2,4-difluorophenyl)-3-methylimidazolidin-2-one], for which the IC50 is 100 to 1000 nM. Same read-out and setting: for `CN1C(=O)N(c2ccc(-c3cn(C)c4ncnc(N)c34)c(F)c2)CC1c1cc(F)c(F)cc1F` (stereo not shown) [Example 156, 1-(4-(4-amino-7-methyl-7H-pyrrolo[2,3-d]pyrimidin-5-yl)-3-fluorophenyl)-3-methyl-4-(2,4,5-trifluorophenyl)imidazolidin-2-one] the value was under 100 nM; for `CN1C(=O)N(c2ccc(-c3cn(C)c4ncnc(N)c34)c(F)c2)CC1c1cc(F)cc(F)c1F` (single isomer, unassigned) [Example 141, 1-(4-(4-amino-7-methyl-7H-pyrrolo[2,3-d]pyrimidin-5-yl)-3-fluorophenyl)-3-methyl-4-(2,3,5-trifluorophenyl)imidazolidin-2-one], 100 to 1000 nM; for `CN1C(=O)N(c2ccc(-c3cn(C4CC4)c4ncnc(N)c34)c(F)c2)CC1c1ccc(F)c(F)c1` (single isomer, unassigned) [Example 117, 1-(4-(4-amino-7-cyclopropyl-7H-pyrrolo[2,3-d]pyrimidin-5-yl)-3-fluorophenyl)-4-(3,4-difluorophenyl)-3-methylimidazolidin-2-one], 100 to 1000 nM. Same read-out and setting: for `Cc1nc(N)c2c(-c3ccc(N4CC(c5cncc(F)c5)N(C)C4=O)cc3F)cn(C)c2n1` (single isomer, unassigned) [Example 111, 1-(4-(4-amino-2,7-dimethyl-7H-pyrrolo[2,3-d]pyrimidin-5-yl)-3-fluorophenyl)-4-(5-fluoropyridin-3-yl)-3-methylimidazolidin-2-one] the value was 100 to 1000 nM. Still for that read-out and setting: under `COc1cccc(C2CN(c3ccc(-c4cn(C)c5ncnc(N)c45)c(F)c3)C(=O)N2C)c1` (stereo not shown) [Example 102, 1-(4-(4-amino-7-methyl-7H-pyrrolo[2,3-d]pyrimidin-5-yl)-3-fluorophenyl)-4-(3-methoxyphenyl)-3-methylimidazolidin-2-one] stands 100 to 1000 nM; under `CCN1C(=O)N(c2ccc(-c3c(C)n(C)c4ncnc(N)c34)c(F)c2)CC1c1ccc(F)cc1F` (stereo not shown) [Example 93, 1-(4-(4-amino-6,7-dimethyl-7H-pyrrolo[2,3-d]pyrimidin-5-yl)-3-fluorophenyl)-4-(2,4-difluorophenyl)-3-ethylimidazolidin-2-one], 100 to 1000 nM.

Consider `CN1C(=O)N(c2ccc(-c3cn(C)c4ncnc(N)c34)c(F)c2)CC1c1ccc(F)cc1` (single isomer, unassigned) [Example 59, 1-(4-(4-amino-7-methyl-7H-pyrrolo[2,3-d]pyrimidin-5-yl)-3-fluorophenyl)-4-(4-fluorophenyl)-3-methylimidazolidin-2-one], for which the IC50 was under 100 nM. On the same count and under the same terms, for `CN1C(=O)N(c2ccc(-c3cn(C4CC4)c4ncnc(N)c34)c(F)c2)CC1c1ccc(Cl)cc1` (stereo not shown) [Example 167, 1-(4-(4-amino-7-cyclopropyl-7H-pyrrolo[2,3-d]pyrimidin-5-yl)-3-fluorophenyl)-4-(4-chlorophenyl)-3-methylimidazolidin-2-one] the value was under 100 nM. Consider `CN1C(=O)N(c2ccc(-c3cn(C)c4ncnc(N)c34)c(F)c2)CC1c1cc(F)ccc1F` (stereo not shown) [Example 18, 1-(4-(4-amino-7-methyl-7H-pyrrolo[2,3-d]pyrimidin-5-yl)-3-fluorophenyl)-4-(2,5-difluorophenyl)-3-methylimidazolidin-2-one], for which the IC50 lay in the range of 100 to 1000 nM. On the same count and under the same terms, under `CN1C(=O)N(c2ccc(-c3cn(C4CC4)c4ncnc(N)c34)c(F)c2)CC1c1cc(F)c(F)cc1F` (single isomer, unassigned) [Example 161, 1-(4-(4-amino-7-cyclopropyl-7H-pyrrolo[2,3-d]pyrimidin-5-yl)-3-fluorophenyl)-3-methyl-4-(2,4,5-trifluorophenyl)imidazolidin-2-one] stands under 100 nM; under `CN1C(=O)N(c2ccc(-c3cn(C)c4ncnc(N)c34)c(F)c2)CC1c1ccc(F)c(F)c1` (stereo not shown) [Example 96, 1-(4-(4-amino-7-methyl-7H-pyrrolo[2,3-d]pyrimidin-5-yl)-3-fluorophenyl)-4-(3,4-difluorophenyl)-3-methylimidazolidin-2-one], under 100 nM. On the same count and under the same terms, for `CCN1C(=O)N(c2ccc(-c3cn(C)c4ncnc(N)c34)c(F)c2)CC1c1ccc(F)c(F)c1` (stereo not shown) [Example 97, 1-(4-(4-amino-7-methyl-7H-pyrrolo[2,3-d]pyrimidin-5-yl)-3-fluorophenyl)-4-(3,4-difluorophenyl)-3-ethylimidazolidin-2-one] the value was under 100 nM. As to `CCN1C(=O)N(c2ccc(-c3cn(C)c4ncnc(N)c34)c(F)c2)CC1c1cc(F)cc(C(F)(F)F)c1` (stereo not shown) [Example 85, 1-(4-(4-amino-7-methyl-7H-pyrrolo[2,3-d]pyrimidin-5-yl)-3-fluorophenyl)-3-ethyl-4-(3-fluoro-5-(trifluoromethyl)phenyl)imidazolidin-2-one], the IC50 was 100 to 1000 nM. The same measure, in the same setting: under `COc1ccc(C2CN(c3ccc(-c4cn(C)c5nc(C)nc(N)c45)c(F)c3)C(=O)N2C)cc1` (stereo not shown) [Example 64, 1-(4-(4-amino-2,7-dimethyl-7H-pyrrolo[2,3-d]pyrimidin-5-yl)-3-fluorophenyl)-4-(4-methoxyphenyl)-3-methylimidazolidin-2-one] stands 100 to 1000 nM; under `CCN1C(=O)N(c2ccc(-c3cn(C4CC4)c4ncnc(N)c34)c(F)c2)CC1c1cc(F)ccc1F` (stereo not shown) [Example 120, 1-(4-(4-amino-7-cyclopropyl-7H-pyrrolo[2,3-d]pyrimidin-5-yl)-3-fluorophenyl)-4-(2,5-difluorophenyl)-3-ethylimidazolidin-2-one], under 100 nM; under `CN1C(=O)N(c2ccc(-c3cn(C4CC4)c4ncnc(N)c34)c(F)c2)CC1c1ccc(F)cc1` (single isomer, unassigned) [Example 163, 1-(4-(4-amino-7-cyclopropyl-7H-pyrrolo[2,3-d]pyrimidin-5-yl)-3-fluorophenyl)-4-(4-fluorophenyl)-3-methylimidazolidin-2-one], under 100 nM. The same measure, in the same setting: under `Cc1nc(N)c2c(-c3ccc(N4CC(c5c(F)ccc(F)c5F)N(C)C4=O)cc3F)cn(C)c2n1` (stereo not shown) [Example 72, 1-(4-(4-amino-2,7-dimethyl-7H-pyrrolo[2,3-d]pyrimidin-5-yl)-3-fluorophenyl)-3-methyl-4-(2,3,6-trifluorophenyl)imidazolidin-2-one] stands 100 to 1000 nM.

For the origin of these results see patent publication US20180237441A1, “Chemical Compounds” (GlaxoSmithKline Intellectual Property (No.2) Limited, priority 2015, published 2018).
